Measurements: patent US20080305189A1, “TREATMENT OF ASPIRIN RESISTANCE WITH RADIX SALVIAE MILTIORRHIZAE, ITS EXTRACT AND COMPOSITION” (Tianjin Tasly Pharmaceutical Co., Ltd., priority 2003, published 2008)

Assays:
[1] = system: urinary 11-dehydrothromboxane B2 (TXB2); test: Test Example 2: urinary 11-dehydrothromboxane B2 by immunoenzyme assay, CDDP study; assay type: in vivo, human; details: group mean, n = 50; drugs for at least half a year
Source text: This study adopted a reviewing method, and the normal value referred to the research results about aspirin resistance in Australia.
All 178 patients, including 140 males and 38 females, came from the retired personnel of the First Sanatorium, Bafenbu Sanatorium. The patients were aged 70˜87 and the average age was 77.1. 170 patients were randomly selected for sample test and the number of patients whose data could be accepted was 150 (IC20˜IC80). Of those enrolled in the study, in addition to aspirin resistance, 91 patients were afflicted with hypertension, 25 patients were afflicted with hyperlipidemia, 32 patients were afflicted with diabetes, 139 patients were afflicted with coronary heart disease, and 57 patients were afflicted with cerebrovascular diseases. […] All the patients administered drugs for at least half a year before sampling.
The urinary sample was the middle section of the first urina of the day. The urinary sample was placed in the liquid nitrogen immediately after sampling and stored at −86[…] in a low-temperature refrigerator. The urinary 11-dehydrothromboxane B2 (TXB2) was determined by immunoenzyme assay using the reagent kit of Cayman Chemical company. All the experiments were completed in the Biological Institute of Tasly Research Academy. Information about patient grouping was double-blind for researchers and statisticians. […]

[2] = system: urinary 11-dehydrothromboxane B2 (TXB2); test: Test Example 3: urinary 11-dehydrothromboxane B2 by immunoenzyme assay, Compound Danshen Tablets study; assay type: in vivo, human; details: group mean, n = 50; cardiovascular outpatients with tendency of aspirin resistance; drugs for at least half a year
Source text: 150 patients in this study were all selected from the cardiovascular outpatients having the tendency of aspirin resistance. All the patients, including 80 males and 70 females, aged between 70˜85, with the average age of 77. To treat aspirin resistance, 50 patients administered aspirin (aspirin group), 50 patients administered Compound Danshen Tablets (CDT group), and 50 patients administered aspirin and CDT simultaneously (combination therapy group). All the patients administered drugs for at least half a year before sampling.
The urinary sample was the middle section of the first urina of the day. The urinary sample was placed in the liquid nitrogen immediately after sampling and stored at −86□ in a low-temperature refrigerator. The urinary 11-dehydrothromboxane B2 (TXB2) was determined by immunoenzyme assay using the reagent kit of Cayman Chemical company. […] Information about patient grouping was double-blind for researchers and statisticians.

## CC(=O)Oc1ccccc1C(=O)O [Aspirin, aspirin]
[1]
  Urinary 11-dehydro TXB2, X ± SD: 25.02 ± 10.51 ng/mmol
[2]
  Urinary 11-dehydro TXB2, X ± SD: 25.05 ± 10.42 ng/mmol
